Results: the NIST ThermoML archive (doi:10.1016/j.fluid.2014.02.004)
Numbers after ± are expanded uncertainties.

Assay: osmotic coefficient (dimensionless); mn = molality of the nth substance listed, in mol/kg
Conditions: 298.15 K, 101 kPa, Liquid, isopiestic method

NCCC(=O)O [3-aminopropanoic acid] + O
Conditions	osmotic coefficient
m1 = 0.1408	0.9912 ± 0.0004
m1 = 0.2482	0.9892 ± 0.0005
m1 = 0.335	0.988 ± 0.0006
m1 = 0.452	0.9882 ± 0.0006
m1 = 0.6148	0.9901 ± 0.0005
m1 = 0.6813	0.9905 ± 0.0005
m1 = 0.9542	0.9934 ± 0.0003
m1 = 1.43	1.0056 ± 0.0003

NCCCCC(=O)O [5-aminovaleric acid] + O
Conditions	osmotic coefficient
m1 = 0.1414	0.987 ± 0.0007
m1 = 0.2493	0.9848 ± 0.0008
m1 = 0.3362	0.9845 ± 0.0008
m1 = 0.4531	0.9858 ± 0.0007
m1 = 0.618	0.9849 ± 0.0008
m1 = 0.6834	0.9874 ± 0.0006
m1 = 0.9461	1.0019 ± 0.0001
m1 = 1.397	1.029 ± 0.0015

NCCCCCC(=O)O [6-aminohexanoic acid] + O
Conditions	osmotic coefficient
m1 = 0.1411	0.9889 ± 0.0006
m1 = 0.2493	0.9848 ± 0.0008
m1 = 0.3366	0.9833 ± 0.0008
m1 = 0.4538	0.9843 ± 0.0008
m1 = 0.617	0.9865 ± 0.0007
m1 = 0.6826	0.9886 ± 0.0006
m1 = 0.9388	1.0097 ± 0.0005
m1 = 1.388	1.036 ± 0.0018

NCCCC(=O)O [4-aminobutanoic acid] + O
Conditions	osmotic coefficient
m1 = 0.1412	0.9884 ± 0.0006
m1 = 0.249	0.986 ± 0.0007
m1 = 0.3355	0.9866 ± 0.0007
m1 = 0.453	0.986 ± 0.0007
m1 = 0.6155	0.9889 ± 0.0006
m1 = 0.6809	0.991 ± 0.0005
m1 = 0.944	1.0041 ± 0.0002
m1 = 1.402	1.026 ± 0.0013
